Patent US8614227B2, “Salt and solvates of a tetrahydroisoquinoline derivative” (Spinifex Pharmaceuticals Pty Ltd, priority 2010, dated 2013)

What was measured:
[1] = Compound 2 solubility in solvents and buffers (saturated, 24 h shaking, HPLC); format: physicochemical; conditions: 50 mM phosphate buffer, aqueous buffer, thermodynamic from solid; pH 3 buffer (phosphate, 50 mM)
[2] = as above; format: physicochemical; conditions: for solubility at 24 h: thermodynamic from solid
Experimental: Solubility of Compound 2 in a solvent, selected from water, methanol, acetonitrile (ACN) and iso-propanol and in 50 mM phosphate buffer at pH 1, 2, 7 and 8, 50 mM citrate buffer at pH 3, 4, 5 and 6 and in 50 mM borate buffer at pH 9 was assessed. Compound 2 was added to 10 mL of the solvent or buffer until the solution was visibly saturated and remained cloudy upon vortex mixing. Each sample was placed on a reciprocal shaker at room temperature for 24 hours then filtered through a 0.45 μm nylon filter to remove excess suspended compound. The samples were then diluted where required in accordance with Table 24, and analyzed by HPLC. The results were compared with a standard curve of known concentrations in ACN.

[3] = Bulk density, tap density, powder flow, particle size and milling feasibility of Compound 2; format: physicochemical; conditions: for Tap Density: Autotap 100 cycles
Experimental: Compound 2 particle size distribution was determined by sieve screen analysis. A sample of Compound 2 was passed through a series of sieves, which included a 53, 106, 250, 500, 710, and 1000 μm mesh screen. Each screen was weighed before and after the sieving occurred to determine the amount of compound at each particle size.
The powder flow was determined on a FlowDex apparatus.
Bulk density was determined by filling a tared 100 mL graduated cylinder with Compound 2. The volume and weight of Compound 2 added was recorded and used to calculate its bulk density. Tap density was then determined by taking the same graduated cylinder filled with Compound 2 and placing it on an Autotap set for 100 cycles. The new powder volume was recorded and used to calculate the tap density.
24.73 mg of Compound 2 was weighed directly into a tared 25 mL volumetric flask. The flask was diluted to volume with ACN and inverted to mix. A sample was taken to determine the % purity (% area) of the drug before milling took place. Milling was performed by taking 17.92 g of Compound 2 and passing this material it through a conical mill with an 1143 μm screen. 14.33 g of Compound 2 was recovered and re-analyzed for particle size distribution, bulk density, and tap density. 24.93 mg of milled Compound 2 was weighed directly into a tared 25 mL volumetric flask. The flask was diluted to volume with ACN and inverted to mix. This sample was taken to determine the % purity (% area) after Compound 2 had been milled.
After Compound 2 had been milled it was blended with 2.5% w/w of colloidal silicon dioxide, Cab-O-Sil®, on a T2 Turbula blender for 2 minutes. The blended powder was collected and its flow properties were analyzed on a FlowDex apparatus.

[4] = Pharmacokinetics in male beagle dogs after a single oral dose (plasma Compound 1); conditions: dog, 10 mg/kg
Experimental: The study was designed to compare the PK profiles of the following four forms of Compound 1 administered as single oral capsules in fasted state. […] There was a washout period of 4 days between dosing. The blood samples were collected from each animal at predetermined times on the study Days 1, 4, 8 and 11. The plasma was analyzed for Compound 1 by a validated HPLC-MS/MS assay.
Descriptive PK parameters were determined by standard model independent methods (Gibaldi and Perrier, 1982) based on the individual plasma concentration-time data. Plasma concentrations were rounded to 3 significant figures. Plasma samples with concentrations below the quantifiable assay limit (BQL<2.00 ng/mL) were assigned values of zero for mean calculations. For PK calculations, BQL was set to zero from the pre-dose time up to the time of the first quantifiable concentration and thereafter was set as missing. Nominal time points were used for all calculations. • Cmax is the observed maximum plasma concentration after dosing. • Tmax is the time to reach Cmax. • T1/2 is apparent half-life calculated by ln(2)/λ where λ is the rate constant fix the log-linear portion of the terminal phase. A minimum of three values in the post-distribution phase of the plasma concentration-time curve is required for calculation of X. • AUC(0-T) is the area under the plasma concentration-time curve from time zero to the time of the last measurable plasma concentration determined using the linear trapezoidal rule. • AUC(0-inf) is the area under the plasma concentration-time curve from time zero to infinity. It is calculated by summing AUC(0-T) and the extrapolated area from the T to infinity.
PK analyses were performed by noncompartmental analysis using model 200 in WinNonlin Professional 6.1 (Pharsight Corp., Mountain View, Calif.).

[5] = Table 42 summary, mean, dogs, single oral 10 mg/kg, plasma Compound 1
[6] = dog 301, single oral 10 mg/kg dose, plasma Compound 1
[7] = dog 302, single oral 10 mg/kg dose, plasma Compound 1
[8] = dog 303, single oral 10 mg/kg dose, plasma Compound 1
[9] = dog 304, single oral 10 mg/kg dose, plasma Compound 1
[10] = mean of dogs, single oral 10 mg/kg dose, plasma Compound 1

## COc1ccc2c(c1OCc1ccccc1)C[C@@H](C(=O)[O-])N(C(=O)C(c1ccccc1)c1ccccc1)C2.[Na+] [Compound 2, sodium salt of (S)-2-(diphenylacetyl)-1,2,3,4-tetrahydro-6-methoxy-5-(phenylmethoxy)-3-isoquinoline carboxylic acid]
[1]
  solubility at 24 h: < 1 µg/mL
[2]; 50 mM borate buffer, aqueous buffer, pH 9 buffer (borate, 50 mM)
  solubility at 24 h: 5300 µg/mL
[2]; 50 mM citrate buffer, aqueous buffer, pH 4 buffer (citrate, 50 mM)
  solubility at 24 h: < 1 µg/mL
[2]; 50 mM citrate buffer, aqueous buffer, pH 5 buffer (citrate, 50 mM)
  solubility at 24 h: 33 µg/mL
[2]; 50 mM citrate buffer, aqueous buffer, pH 6 buffer (citrate, 50 mM)
  solubility at 24 h: 900 µg/mL
[2]; 50 mM phosphate buffer, aqueous buffer, pH 1 buffer (phosphate, 50 mM), room temperature 24 h
  solubility at 24 h: < 1 µg/mL
[2]; 50 mM phosphate buffer, aqueous buffer, pH 2 buffer (phosphate, 50 mM)
  solubility at 24 h: < 1 µg/mL
[2]; 50 mM phosphate buffer, aqueous buffer, pH 7 buffer (phosphate, 50 mM)
  solubility at 24 h: 1700 µg/mL
[2]; 50 mM phosphate buffer, aqueous buffer, pH 8 buffer (phosphate, 50 mM)
  solubility at 24 h: 1600 µg/mL
[2]; Methanol
  Solubility: >50000 µg/mL
[2]; acetonitrile, organic solvent or mixture
  solubility at 24 h: 12000 µg/mL
[2]; iso-propanol, organic solvent or mixture, IPA
  solubility at 24 h: 700 µg/mL
[2]; methanol, organic solvent or mixture
  solubility at 24 h: > 50000 µg/mL
[2]; water
  solubility at 24 h: 14000 µg/mL
[3]; after milling
  average particle size: ~560 μm
[3]; before vs after milling
  % Purity with milling: % Purity of Compound 2 sample did not change with milling.
[3]; bulk unmilled
  powder flow (FlowDex): unable to pass through the largest available, 34 mm, orifice
[3]; bulk, before milling
  average particle size: ~775 μm
[3]; milled (conical mill, 1143 μm screen)
  Bulk Density: 0.073 g/mL
[3]; milled
  Tap Density: 0.098 g/mL
[3]; milled, blended with 2.5% w/w colloidal silicon dioxide
  powder flow (FlowDex): passed through a 34 mm orifice but failed to pass through a 32 mm orifice
[3]; unmilled
  Bulk Density: 0.089 g/mL
  Tap Density: 0.114 g/mL
[4]; [5]
  AUC(0-t): 1840 ng·h/mL
  AUC(0-inf): 1840 ng·h/mL
[4]; [6]
  AUC(0-t): 1290 ng·h/mL
  AUC(0-inf): 1300 ng·h/mL
[4]; [7]
  AUC(0-t): 2350 ng·h/mL
  AUC(0-inf): 2350 ng·h/mL
[4]; [8]
  AUC(0-t): 1520 ng·h/mL
  AUC(0-inf): 1520 ng·h/mL
[4]; [9]
  AUC(0-t): 2180 ng·h/mL
  AUC(0-inf): 2220 ng·h/mL
[4]; [10]
  AUC(0-t): 1830 ng·h/mL
  AUC(0-inf): 1840 ng·h/mL
[4]; Cmax, dog 301, single oral 10 mg/kg dose, plasma Compound 1
  Cmax: 1110 ng/mL
[4]; Cmax, dog 302, single oral 10 mg/kg dose, plasma Compound 1
  Cmax: 1220 ng/mL
[4]; Cmax, dog 303, single oral 10 mg/kg dose, plasma Compound 1
  Cmax: 1750 ng/mL
[4]; Cmax, dog 304, single oral 10 mg/kg dose, plasma Compound 1
  Cmax: 2270 ng/mL
[4]; Cmax, mean of dogs, single oral 10 mg/kg dose, plasma Compound 1
  Cmax: 1590 ng/mL
[4]; Mean harmonic T1/2, male beagle dogs, single oral 10 mg/kg capsule, fasted, Compound 1 in plasma
  half-life: 2.49 ± 0.391 h
[4]; T1/2, Table 42 summary, harmonic mean, dogs, single oral 10 mg/kg, plasma Compound 1
  half-life: 2.49 h
[4]; T1/2, dog 301, single oral 10 mg/kg dose, plasma Compound 1
  half-life: 2.51 h
[4]; T1/2, dog 302, single oral 10 mg/kg dose, plasma Compound 1
  half-life: 2.73 h
[4]; T1/2, dog 303, single oral 10 mg/kg dose, plasma Compound 1
  half-life: 2.05 h
[4]; T1/2, dog 304, single oral 10 mg/kg dose, plasma Compound 1
  half-life: 2.81 h
[4]; T1/2, harmonic mean of dogs, single oral 10 mg/kg dose, plasma Compound 1
  half-life: 2.49 h
[4]; Tmax, Table 42 summary, median, dogs, single oral 10 mg/kg, plasma Compound 1
  Tmax: 0.75 h
[4]; Tmax, dog 301, single oral 10 mg/kg dose, plasma Compound 1
  Tmax: 0.75 h
[4]; Tmax, dog 302, single oral 10 mg/kg dose, plasma Compound 1
  Tmax: 1 h
[4]; Tmax, dog 303, single oral 10 mg/kg dose, plasma Compound 1
  Tmax: 0.75 h
[4]; Tmax, dog 304, single oral 10 mg/kg dose, plasma Compound 1
  Tmax: 0.5 h
[4]; Tmax, median of dogs (Mean column), single oral 10 mg/kg dose, plasma Compound 1
  Tmax: 0.75 h
[4]; mean Cmax, male beagle dogs, single oral 10 mg/kg capsule, fasted, Compound 1 in plasma, mean±SD
  Cmax: 1590 ± 534 ng/mL
[4]; median Tmax, male beagle dogs, single oral 10 mg/kg capsule, fasted, Compound 1 in plasma
  Tmax: 0.75 h
